# In patent publication US5214063A, “4-aminobutyric acid compounds, compositions and methods of use for treating disorders related to a dysfunction of GABAB receptors” (Adir et Compagnie, priority 1990, dated 1993):
# Tested on: hippocampal preparations (CA3 pyramidal cells)
# Assay: Inhibition of excitation activity induced by convulsants (bicucullin) in hippocampal preparations
# Assay type: cell-based
# Conditions: 10 min; excitation induced by bicucullin (50 μM), compound perfused 10 minutes, adult female rat hippocampal preparations; read-out: inhibiting concentration 50 (IC50)
# Experimental: Hippocampal preparations were prepared from the brains of sacrificed adult female rats. Transverse sections were placed in a preservative medium. After 1 hour and 30 minutes' incubation, the isolated preparations were placed under registration, perfused with a saline solution and oxygenated. Spontaneous potentials appear which are associated with CA3 pyramidal cells. Excitation is induced by the addition of bicucullin (50 μM).
# The compounds of the invention, at various concentrations, or baclofen are then added.
# The baclofen or the compounds of the invention are perfused for periods of 10 minutes. The excitation rate is calculated during the four minutes preceding the perfusion of baclofen or the compounds of the invention and during the last four minutes of the perfusion of the products to be studied.
# The inhibition is expressed as percentage excitation in relation to the initial rate, which permits the determination of an inhibiting concentration 50 (IC50). The compounds of the invention have an IC50 of from 5 to 20 μM; baclofen in this test has an IC50 of approximately 50 μM.
smiles,measurement,value
"NCC(CC(=O)O)c1ccc(Cl)cc1 (stereo not shown) [baclofen, 4-amino-3-(4-chlorophenyl)butyric acid]",IC50,~50 µM
